Measurements from US9714249B2 (Novartis AG, priority 2013, dated 2017).

Key:
THP-1 cells = test: Cell growth inhibition assay (CellTiter-Glo), THP-1; type: cell-based, human; details: THP-1, 4 days; for GI50: half-maximal growth inhibition; for THP-1 TGI: total growth inhibition
Protocol: (§1) The human leukemia cell lines MV-4-11, THP-1 and K-562 were employed to characterize the effect of BET inhibitors on cellular proliferation and viability. Cells were obtained from the American Type Culture Collection (ATCC) and cultured at 37° C. in a humidified 5% CO2 incubator in the following media: MV-4-11: DMEM high glucose (Animed #1-26F01-I), 10% FCS (Animed #2-01F26-I), 4 mM L-Glutamine (Animed #5-10K50), 1 mM Sodium Pyruvate (Animed # G03625P), 1× Penicillin-Streptomycin (Animed # F12478P); K-562: Iscove's MEM (Animed #1-28F16-I), 10% FCS (Animed #2-01F26-I), 4 mM L-Glutamine (Animed #5-10K50), 1× Penicillin-Streptomycin (Animed # F12478P); THP-1: RPMI-1640 (Animed #1-41F01-I), 10% FCS (Animed #2-01F26-I), 2 mM L-Glutamine (Animed #5-10K50), 10 mM HEPES (Animed #5-31F100), 1 mM Sodium Pyruvate (Animed # G03625P), 1× Penicillin-Streptomycin (Animed # F12478P). The AML lines MV-4-11 and THP-1 are very sensitive to BET inhibitors and show massive cell death upon BET inhibition (Zuber et al., Nature, 478 (2011), 524-8). Compound-mediated suppression of cell proliferation/viability was assessed by quantification of cellular ATP levels using the CellTiter-Glo (CTG) reagent (Promega). Briefly, cells were seeded in 20 μl fresh medium into 384-well plates, followed by addition of 5 μl medium containing compound dilutions at 5-fold their final intended concentration. Dose-response effects were assessed by 3-fold serial dilutions of the test compound, starting at 10 μM. Following incubation of the cells for 4 days at 37° C. and 5% CO2, the effect of inhibitors on cell viability was quantified following addition of 20 μl CTG and luminescence quantification (integration time: 100 ms) as per vendor manual, using a correspondingly equipped Tecan M200 multi-mode platereader (TECAN, Switzerland). For data analysis, the assay background value determined in wells containing medium, but no cells, was subtracted from all data points. To enable differentiation of cytotoxic from cytostatic compounds, the number of viable cells is assessed relative to that observed at the time of compound addition using a separate cell plate (day 0). The effect of a particular test compound concentration on cell proliferation/viability is expressed as percentage of the background- and day 0-corrected luminescence reading obtained for cells treated with vehicle only (DMSO, 0.1% final concentration), which is set as 100%, whereas that luminescence reading for wells containing medium is set as −100%. Compound concentrations leading to half-maximal (1050) and total growth inhibition (TGI) were determined using standard four parameter curve fitting.

BRD4 (His-Brd4(44-477)) = BRD4 (His-Brd4(44-477)) (Homo sapiens (Human), UniProt O60885); test: TR-FRET in-vitro binding assay for BRD4; details: acetyl-histone H4 peptide
Protocol: All assays were performed in 384 well microtiter plates. Each assay plate contained 8-point serial dilutions for 40 test compounds, plus 16 high- and 16 low controls. Liquid handling and incubation steps were done on an Innovadyne Nanodrop Express equipped with a robotic arm (Thermo CatX, Perkin Elmer/Caliper Twister II) and an incubator (Liconic STX40, Thermo Cytomat 2C450). The assay plates were prepared by addition of 50 nl per well of compound solution in 90% DMSO HummingBird nanodispenser (Zinsser Analytic). […] Reactions were incubated at 30° C. for 35 minutes. […] After 35 minutes incubation at 30° C., plates were measured in a Perkin Elmer EnVision multilabel reader.
(§2) Test compounds were dissolved in DMSO (10 mM) and transferred into 1.4 mL flat bottom or V-shaped Matrix tubes carrying a unique 2D matrix. The stock solutions were stored at […] if not used immediately. For the test procedure the vials were defrosted and identified by a scanner whereby a working sheet was generated that guided the subsequent working steps. Compound dilutions were made in 96 well plates. This format enabled the assay of maximally 40 individual test compounds at 8 concentrations (single points) including 4 reference compounds, if desired (known BET inhibitors from the prior art, for this and other assays of the type disclosed herein). The dilution protocol included the production of “pre-dilution plates”, “master plates” and “assay plates”.
(§3) Pre-dilution plates: 96 polypropylene well plates were used as pre-dilution plates. A total of 4 pre-dilution plates were prepared including 10 test compounds each on the plate positions A1-A10, one standard compound at A11 and one DMSO control at A12. All dilution steps were done on a HamiltonSTAR robot. […] These plates were used directly for the assay which was performed in a total volume of 13.55 μL. […] Cell Growth Inhibition Assay

MV-4-11 cells = test: Cell growth inhibition assay (CellTiter-Glo), MV-4-11; type: cell-based, human; details: MV-4-11, 4 days; for GI50: half-maximal growth inhibition; for MV-4-11 TGI: total growth inhibition
Protocol: as §1

[1] = target: CREBBP bromodomain (His-CREBBP (1081-1197)) (Homo sapiens (Human), UniProt Q92793); test: AlphaScreen in-vitro binding assay for CREBBP; details: acetyl-histone H4 peptide
Sequence of CREBBP bromodomain (His-CREBBP (1081-1197)) (Q92793 1081-1197): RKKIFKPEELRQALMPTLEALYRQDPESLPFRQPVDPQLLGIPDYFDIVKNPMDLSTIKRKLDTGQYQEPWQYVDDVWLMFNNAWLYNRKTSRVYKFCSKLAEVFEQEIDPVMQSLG
Protocol: In order to assess bromodomain selectivity, we set up a binding assay using the bromodomain encoded by the CREBBP gene. […] Reactions were incubated at 30° C. for 35 minutes. Subsequently 4.5 μl per well detection mix (50 mM HEPES, pH 7.5, 0.005% Tween20, 0.02% BSA, 150 mM NaCl, 45 μg/ml Ni-chelate acceptor beads, 45 μg/ml streptavidin-donor beads) (Perkin Elmer)) were added. After 60 minutes incubation at room temperature, plates were measured in a Perkin Elmer EnVision multilabel reader. IC50 values were determined from percent inhibition values at different compound concentrations by non-linear regression analysis.
as §2, §3

GI50 (THP-1 cells; Homo sapiens, 96 h) [nM] | IC50 (BRD4 (His-Brd4(44-477))) [nM] | GI50 (MV-4-11 cells; Homo sapiens, MV4-11, 96 h) [nM] | IC50 [1] [nM] | SMILES | THP-1 TGI (THP-1 cells) [nM] | MV-4-11 TGI (MV-4-11 cells) [nM] | GI50 (THP-1 cells) [nM] | GI50 (MV-4-11 cells) [nM]
93.1 | 56 | 38.6 | – | COc1ccc(-n2nc(C)c3c2C(c2ccc(Cl)cc2)N(c2cc(C)c(=O)n(C)c2)C3=O)cn1 (stereo not shown) [Example 20b, 6-(4-chlorophenyl)-5-(1,5-dimethyl-6-oxo-1,6-dihydropyridin-3-yl)-1-(6-methoxypyridin-3-yl)-3-methyl-5,6-dihydropyrrolo[3,4-c]pyrazol-4(1H)-one] | 156 | 54.2 | – | –
293 | 210 | 117 | 5400 | COc1ncc(-n2nc3c(c2C)C(=O)N(c2cc(Cl)c(=O)n(C)c2)C3c2ccc(Cl)cc2)cn1 (stereo not shown) [Example 8b, 5-(5-chloro-1-methyl-6-oxo-1,6-dihydropyridin-3-yl)-6-(4-chlorophenyl)-2-(2-methoxypyrimidin-5-yl)-3-methyl-5,6-dihydropyrrolo[3,4-c]pyrazol-4(2H)-one] | 562 | 195 | – | –
101 | 96 | 53.8 | 5000 | Cc1cc(N2C(=O)c3c(C4CC4)nn(-c4ccnn4C)c3C2c2ccc(Cl)cc2)cn(C)c1=O (stereo not shown) [Example 5, 6-(4-chlorophenyl)-3-cyclopropyl-5-(1,5-dimethyl-6-oxo-1,6-dihydropyridin-3-yl)-1-(1-methyl-1H-pyrazol-5-yl)-5,6-dihydropyrrolo[3,4-c]pyrazol-4(1H)-one] | 179 | 100 | – | –
87.4 | 140 | 49.5 | 2900 | Cc1cc(N2C(=O)c3c(C4CC4)nn(-c4ccnn4C)c3[C@H]2c2ccc(Cl)cc2)cn(C)c1=O [Example 22, (R)-6-(4-chlorophenyl)-3-cyclopropyl-5-(1,5-dimethyl-6-oxo-1,6-dihydropyridin-3-yl)-1-(1-methyl-1H-pyrazol-5-yl)-5,6-dihydropyrrolo[3,4-c]pyrazol-4(1H)-one] | 165 | 88.65 | – | –
166 | 71 | 115 | > 11100 | COc1ncc(-n2nc(C)c3c2C(c2ccc(Cl)cc2)N(c2cc(C)c(=O)n(C)c2)C3=O)cn1 (stereo not shown) [Example 21a, 6-(4-chlorophenyl)-5-(1,5-dimethyl-6-oxo-1,6-dihydropyridin-3-yl)-1-(2-methoxypyrimidin-5-yl)-3-methyl-5,6-dihydropyrrolo[3,4-c]pyrazol-4(1H)-one] | 331 | 177 | – | –
27.6 | 91 | 22.6 | 1000 | COc1ncccc1-n1nc2c(c1C)C(=O)N(c1cc(C)c(=O)n(C)c1)[C@@H]2c1ccc(Cl)cc1 [Example 26, (R)-6-(4-chlorophenyl)-5-(1,5-dimethyl-6-oxo-1,6-dihydropyridin-3-yl)-2-(2-methoxypyridin-3-yl)-3-methyl-5,6-dihydropyrrolo[3,4-c]pyrazol-4(2H)-one] | 52.4 | 36.75 | – | –
104 | 41 | 56.7 | 1900 | COc1ncccc1-n1nc2c(c1C)C(=O)N(c1cc(Cl)c(=O)n(C)c1)C2c1ccc(Cl)cc1 (stereo not shown) [Example 7b, 5-(5-chloro-1-methyl-6-oxo-1,6-dihydropyridin-3-yl)-6-(4-chlorophenyl)-2-(2-methoxypyridin-3-yl)-3-methyl-5,6-dihydropyrrolo[3,4-c]pyrazol-4(2H)-one] | 285 | 82.4 | – | –
29.7 | 73 | 21.6 | 1700 | Cc1cc(N2C(=O)c3c(C4CC4)n[nH]c3[C@H]2c2ccc(Cl)cc2)cn(C)c1=O [Example 24, (R)-6-(4-chlorophenyl)-3-cyclopropyl-5-(1,5-dimethyl-6-oxo-1,6-dihydropyridin-3-yl)-5,6-dihydropyrrolo[3,4-c]pyrazol-4(1H)-one] | 62.25 | 34.95 | – | –
43 | 56 | 23.6 | 545 | COc1ncccc1-c1nn(C)c2c1C(=O)N(c1cc(C)c(=O)n(C)c1)[C@@H]2c1ccc(Cl)cc1 [Example 16, (R)-6-(4-chlorophenyl)-5-(1,5-dimethyl-6-oxo-1,6-dihydropyridin-3-yl)-3-(2-methoxypyridin-3-yl)-1-methyl-5,6-dihydropyrrolo[3,4-c]pyrazol-4(1H)-one] | 92.2 | 43.7 | – | –
44 | 41 | 16.9 | 1300 | CCOc1ncccc1-n1nc2c(c1C)C(=O)N(c1cc(C)c(=O)n(C)c1)C2c1ccc(Cl)cc1 (stereo not shown) [Example 18b, 6-(4-chlorophenyl)-5-(1,5-dimethyl-6-oxo-1,6-dihydropyridin-3-yl)-2-(2-ethoxypyridin-3-yl)-3-methyl-5,6-dihydropyrrolo[3,4-c]pyrazol-4(2H)-one] | 93.1 | 31.3 | – | –
90.1 | 43 | 37.5 | – | Cc1cc(N2C(=O)c3c(C4CC4)nn(CCO)c3C2c2ccc(Cl)cc2)cn(C)c1=O (stereo not shown) [Example 3, 6-(4-chlorophenyl)-3-cyclopropyl-5-(1,5-dimethyl-6-oxo-1,6-dihydropyridin-3-yl)-1-(2-hydroxyethyl)-5,6-dihydropyrrolo[3,4-c]pyrazol-4(1H)-one] | 264 | 64 | – | –

SMILES | GI50 (THP-1 cells; Homo sapiens, 96 h) [nM] | IC50 (BRD4 (His-Brd4(44-477))) [nM] | GI50 (MV-4-11 cells; Homo sapiens, MV4-11, 96 h) [nM] | IC50 [1] [nM] | THP-1 TGI (THP-1 cells) [nM] | MV-4-11 TGI (MV-4-11 cells) [nM] | GI50 (THP-1 cells) [nM] | GI50 (MV-4-11 cells) [nM]
COc1ncccc1-n1nc(C)c2c1[C@@H](c1ccc(Cl)cc1)N(c1cc(C)c(=O)n(C)c1)C2=O [Example 25, (R)-6-(4-chlorophenyl)-5-(1,5-dimethyl-6-oxo-1,6-dihydropyridin-3-yl)-1-(2-methoxypyridin-3-yl)-3-methyl-5,6-dihydropyrrolo[3,4-c]pyrazol-4(1H)-one] | 72.7 | 150 | 40.7 | 2000 | 135.5 | 72.55 | – | –
CNC1=C(C(=N)C2CC2)C(=O)N(c2cc(C)c(=O)n(C)c2)[C@@H]1c1ccc(Cl)cc1 [Example 2] | – | 16 | – | 1200 | 46.8 | 30.3 | 21.9 | 15.4
